ChEMBL document CHEMBL3045618, “Effect of seven new orchard pesticides on Galendromus occidentalis in laboratory studies” (2009)

How the values were obtained:
Format in all cases: functional
Galendromus occidentalis [1] = test: Toxicity against Metaseiulus occidentalis adults in bean leaf disk infested with two-spotted spider mites assessed as average number of eggs laid (fecundity) at 0.1333 g AI/L treated using worst-case laboratory exposure procedure measured after 48 hr (reference value: 2.30/day)
Galendromus occidentalis [2] = test: Toxicity against Metaseiulus occidentalis adults in bean leaf disk infested with two-spotted spider mites assessed as corrected mortality at 4x0.1600 g AI/L treated using worst-case laboratory exposure procedure measured after 72 hr
Galendromus occidentalis [3] = test: Toxicity against Metaseiulus occidentalis adults in bean leaf disk infested with two-spotted spider mites assessed as repellency at 0.1333 g AI/L treated using worst-case laboratory exposure procedure measured after 48 hr (reference value: 13.6%)
Galendromus occidentalis [4] = test: Toxicity against Metaseiulus occidentalis adults in bean leaf disk infested with two-spotted spider mites assessed as repellency at 0.1333 g AI/L treated using worst-case laboratory exposure procedure measured after 24 hr (reference value: 3.6%)
Galendromus occidentalis [5] = test: Ovicidal activity against Metaseiulus occidentalis eggs in bean leaf disk infested with two-spotted spider mites assessed as corrected cumulative mortality at 480 g/L SC formulation treated using worst-case laboratory exposure procedure measured after 144 hr (reference value: 0.7%)
Galendromus occidentalis [6] = test: Toxicity against Metaseiulus occidentalis adults in bean leaf disk infested with two-spotted spider mites assessed as average number of eggs laid (fecundity) at 0.1333 g AI/L treated using worst-case laboratory exposure procedure measured after 24 hr (reference value: 2.11/day)
Galendromus occidentalis [7] = test: Toxicity against Metaseiulus occidentalis adults in bean leaf disk infested with two-spotted spider mites assessed as corrected mortality at 0.1600 g AI/L treated using worst-case laboratory exposure procedure measured after 72 hr
Galendromus occidentalis [8] = test: Toxicity against Metaseiulus occidentalis adults in bean leaf disk infested with two-spotted spider mites assessed as corrected mortality at 2x0.1600 g AI/L treated using worst-case laboratory exposure procedure measured after 72 hr
Galendromus occidentalis [9] = test: Toxicity against Metaseiulus occidentalis adults in bean leaf disk infested with two-spotted spider mites assessed as average number of eggs laid (fecundity) at 0.1333 g AI/L treated using worst-case laboratory exposure procedure measured after 72 hr (reference value: 2.23/day)
Galendromus occidentalis [10] = test: Toxicity against Metaseiulus occidentalis adults in bean leaf disk infested with two-spotted spider mites assessed as repellency at 0.1333 g AI/L treated using worst-case laboratory exposure procedure measured after 72 hr (reference value: 16.1%)
Galendromus occidentalis [11] = test: Toxicity against Metaseiulus occidentalis adults in bean leaf disk infested with two-spotted spider mites assessed as corrected mortality at 0.1167/46 g AI/L treated using worst-case laboratory exposure procedure measured after 72 hr
Galendromus occidentalis [12] = test: Toxicity against Metaseiulus occidentalis adults in bean leaf disk infested with two-spotted spider mites assessed as mortality treated using worst-case laboratory exposure procedure measured after 72 hr
Galendromus occidentalis [13] = test: Toxicity against Metaseiulus occidentalis adults in bean leaf disk infested with two-spotted spider mites assessed as corrected mortality at 0.1167 g AI/L treated using worst-case laboratory exposure procedure measured after 72 hr
Galendromus occidentalis [14] = test: Toxicity against Metaseiulus occidentalis adults in bean leaf disk infested with two-spotted spider mites assessed as repellency at 0.1167 g AI/L treated using worst-case laboratory exposure procedure measured after 48 hr (reference value: 13.6%)
Galendromus occidentalis [15] = test: Toxicity against Metaseiulus occidentalis adults in bean leaf disk infested with two-spotted spider mites assessed as corrected mortality at 4x0.1167 g AI/L treated using worst-case laboratory exposure procedure measured after 72 hr
Galendromus occidentalis [16] = test: Toxicity against Metaseiulus occidentalis adults in bean leaf disk infested with two-spotted spider mites assessed as average number of eggs laid (fecundity) at 0.1167 g AI/L treated using worst-case laboratory exposure procedure measured after 48 hr (reference value: 2.30/day)
Galendromus occidentalis [17] = test: Toxicity against Metaseiulus occidentalis adults in bean leaf disk infested with two-spotted spider mites assessed as corrected mortality at 0.1167/8 g AI/L treated using worst-case laboratory exposure procedure measured after 72 hr
Galendromus occidentalis [18] = test: Toxicity against Metaseiulus occidentalis adults in bean leaf disk infested with two-spotted spider mites assessed as average number of eggs laid (fecundity) at 0.1167 g AI/L treated using worst-case laboratory exposure procedure measured after 24 hr (reference value: 2.11/day)
Galendromus occidentalis [19] = test: Toxicity against Metaseiulus occidentalis adults in bean leaf disk infested with two-spotted spider mites assessed as corrected mortality at 0.1167/128 g AI/L treated using worst-case laboratory exposure procedure measured after 72 hr
Galendromus occidentalis [20] = test: Toxicity against Metaseiulus occidentalis adults in bean leaf disk infested with two-spotted spider mites assessed as corrected mortality at 2x0.1167 g AI/L treated using worst-case laboratory exposure procedure measured after 72 hr
Galendromus occidentalis [21] = test: Toxicity against Metaseiulus occidentalis adults in bean leaf disk infested with two-spotted spider mites assessed as repellency at 0.1167 g AI/L treated using worst-case laboratory exposure procedure measured after 24 hr (reference value: 3.6%)
Galendromus occidentalis [22] = test: Toxicity against Metaseiulus occidentalis adults in bean leaf disk infested with two-spotted spider mites assessed as average number of eggs laid (fecundity)at 0.1167 g AI/L treated using worst-case laboratory exposure procedure measured after 72 hr (reference value: 2.23/day)
Galendromus occidentalis [23] = test: Ovicidal activity against Metaseiulus occidentalis eggs in bean leaf disk infested with two-spotted spider mites assessed as corrected cumulative mortality at 700 g/kg WP formulation treated using worst-case laboratory exposure procedure measured after 144 hr (reference value: 0.7%)
Galendromus occidentalis [24] = test: Toxicity against Metaseiulus occidentalis adults in bean leaf disk infested with two-spotted spider mites assessed as repellency at 0.1167 g AI/L treated using worst-case laboratory exposure procedure measured after 72 hr (reference value: 16.1%)
Galendromus occidentalis [25] = test: Toxicity against Metaseiulus occidentalis adults in bean leaf disk infested with two-spotted spider mites assessed as repellency at 0.1600 g AI/L treated using worst-case laboratory exposure procedure measured after 24 hr (reference value: 3.6%)
Galendromus occidentalis [26] = test: Ovicidal activity against Metaseiulus occidentalis eggs in bean leaf disk infested with two-spotted spider mites assessed as corrected cumulative mortality at 250 g/kg WG formulation treated using worst-case laboratory exposure procedure measured after 144 hr (reference value: 0.7%)
Galendromus occidentalis [27] = test: Toxicity against Metaseiulus occidentalis adults in bean leaf disk infested with two-spotted spider mites assessed as average number of eggs laid (fecundity) at 0.1600 g AI/L treated using worst-case laboratory exposure procedure measured after 24 hr (reference value: 2.11/day)
Galendromus occidentalis [28] = test: Toxicity against Metaseiulus occidentalis adults in bean leaf disk infested with two-spotted spider mites assessed as average number of eggs laid (fecundity) at 0.1600 g AI/L treated using worst-case laboratory exposure procedure measured after 48 hr (reference value: 2.30/day)
Galendromus occidentalis [29] = test: Toxicity against Metaseiulus occidentalis adults in bean leaf disk infested with two-spotted spider mites assessed as repellency at 0.1600 g AI/L treated using worst-case laboratory exposure procedure measured after 72 hr (reference value: 16.1%)
Galendromus occidentalis [30] = test: Toxicity against Metaseiulus occidentalis adults in bean leaf disk infested with two-spotted spider mites assessed as repellency at 0.1600 g AI/L treated using worst-case laboratory exposure procedure measured after 48 hr (reference value: 13.6%)
Galendromus occidentalis [31] = test: Toxicity against Metaseiulus occidentalis adults in bean leaf disk infested with two-spotted spider mites assessed as average number of eggs laid (fecundity) at 0.1600 g AI/L treated using worst-case laboratory exposure procedure measured after 72 hr (reference value: 2.23/day)

N#C/N=C1\SCCN1Cc1ccc(Cl)nc1 [THIACLOPRID]
Activity (Galendromus occidentalis [1]): 1.26 day⁻¹
mortality (Galendromus occidentalis [2]): 5.8%
Repellency (Galendromus occidentalis [3]): 44.9%
Repellency (Galendromus occidentalis [4]): 12.2%
mortality at 480000 µg/mL (stock) (Galendromus occidentalis [5]): 1.9%
Activity (Galendromus occidentalis [6]): 1.64 day⁻¹
mortality (Galendromus occidentalis [7]): 2.8%
mortality (Galendromus occidentalis [8]): 2.3%
Activity (Galendromus occidentalis [9]): 1.58 day⁻¹
Repellency (Galendromus occidentalis [10]): 49.4%

C/C(=N\C#N)N(C)Cc1ccc(Cl)nc1 [ACETAMIPRID]
mortality (Galendromus occidentalis [11]): 42.4%
LC50 (Galendromus occidentalis [12]): 0.021 gAi/L
mortality (Galendromus occidentalis [13]): 63.7%
Repellency (Galendromus occidentalis [14]): 41%
mortality (Galendromus occidentalis [15]): 83.1%
Activity (Galendromus occidentalis [16]): 0.13 day⁻¹
mortality (Galendromus occidentalis [17]): 56.9%
Activity (Galendromus occidentalis [18]): 1.3 day⁻¹
mortality (Galendromus occidentalis [19]): 2.4%
mortality (Galendromus occidentalis [20]): 64.2%
Repellency (Galendromus occidentalis [21]): 16%
Activity (Galendromus occidentalis [22]): 0 day⁻¹
mortality (Galendromus occidentalis [23]): 2%
Repellency (Galendromus occidentalis [24]): 50%

CN1COCN(Cc2cnc(Cl)s2)/C1=N\[N+](=O)[O-] [THIAMETHOXAM]
mortality (Galendromus occidentalis [2]): 8.5%
Repellency (Galendromus occidentalis [25]): 5.1%
mortality (Galendromus occidentalis [26]): 4.3%
Activity (Galendromus occidentalis [27]): 1.44 day⁻¹
Activity (Galendromus occidentalis [28]): 0.33 day⁻¹
Repellency (Galendromus occidentalis [29]): 41%
Repellency (Galendromus occidentalis [30]): 34%
Activity (Galendromus occidentalis [31]): 0.58 day⁻¹
mortality (Galendromus occidentalis [7]): 8%
mortality (Galendromus occidentalis [8]): 6.2%
